The record followed here is patent publication US20260200942A1, “PARP7 INHIBITORS AND THEIR APPLICATIONS” (CHONGQING PHARSCIN INNOBIO CO., LTD., priority 2023, published 2026).

In this assay the target is T1, PARP7 (Homo sapiens, UniProt Q7Z3E1).
T1 construct: purchased BPS 80527
T1 sequence (Q7Z3E1 1-657): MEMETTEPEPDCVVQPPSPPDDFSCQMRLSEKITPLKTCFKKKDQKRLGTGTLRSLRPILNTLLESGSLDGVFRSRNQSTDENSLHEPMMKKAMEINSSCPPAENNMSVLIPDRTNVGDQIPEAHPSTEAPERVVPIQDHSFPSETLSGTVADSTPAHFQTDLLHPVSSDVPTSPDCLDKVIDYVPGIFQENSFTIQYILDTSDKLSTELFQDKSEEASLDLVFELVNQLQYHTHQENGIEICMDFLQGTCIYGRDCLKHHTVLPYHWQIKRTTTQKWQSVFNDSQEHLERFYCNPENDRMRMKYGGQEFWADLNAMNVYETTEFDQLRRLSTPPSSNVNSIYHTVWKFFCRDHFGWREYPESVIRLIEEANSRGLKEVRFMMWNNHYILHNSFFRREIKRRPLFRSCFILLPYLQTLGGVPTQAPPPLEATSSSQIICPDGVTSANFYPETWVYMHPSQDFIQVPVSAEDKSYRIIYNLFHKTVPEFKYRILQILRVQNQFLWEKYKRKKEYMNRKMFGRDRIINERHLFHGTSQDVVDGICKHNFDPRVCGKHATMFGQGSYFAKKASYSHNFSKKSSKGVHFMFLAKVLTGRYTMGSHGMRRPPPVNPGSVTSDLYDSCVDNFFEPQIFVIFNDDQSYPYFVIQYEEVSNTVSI
In words: PARP7 inhibitory activity assay (histone-coated 384-well plate, chemiluminescence). The class given is biochemical. The text has this: Inhibition rate (%) calculation formula: […]

Usually IC50 stands for the concentration at which inhibition is half-maximal. Regarding `N#Cc1cc(C(F)(F)F)cnc1N1CCN(C(=O)[C@H]2C[C@H](NCc3cc(C(F)(F)F)c(=O)[nH]n3)C2)CC1` [Embodiment 47, 2-(4-((1R,3R)-3-(((6-oxo-5-(trifluoromethyl)-1,6-dihydropyridazin-3-yl)methyl)amino)cyclobutane-1-carbonyl)piperazin-1-yl)-5-(trifluoromethyl)nicotinonitrile], the IC50 lay within 10 to 100 nM. Regarding `O=C(C1CN(Cc2c[nH]c(=O)c(C(F)(F)F)c2)C1)N1CCN(c2cnc(C(F)(F)F)cn2)CC1` [Embodiment 29], the IC50 was 10 to 100 nM. Compound `O=C([C@H]1CC[C@H](NCc2c[nH]c(=O)c(C(F)(F)F)c2)C1)N1C2CCC1CN(c1ncc(C(F)(F)F)cn1)C2` [Embodiment 1] returned an IC50 of 1000 to 10000 nM. As to `CN(Cc1cc(C(F)(F)F)c(=O)[nH]n1)[C@H]1C[C@H](C(=O)N2CCN(c3ncc(C(F)(F)F)cn3)CC2)C1` [Embodiment 34], the half-maximal inhibitory concentration (IC50) fell in the range of 10 to 100 nM.

In turn, `O=C([C@H]1CCN(Cc2cc(C(F)(F)F)c(=O)[nH]n2)C1)N1C2CCC1CN(c1ncc(C(F)(F)F)cn1)C2` [Embodiment 11, 4-(trifluoromethyl)-6-(((3S)-3-(3-(5-(trifluoromethyl)pyrimidin-2-yl)-3,8-diazabicyclo[3.2.1]octane-8-carbonyl)pyrrolidin-1-yl)methyl)pyridazin-3(2H)-one] had an IC50 of 100 to 1000 nM. `O=C(C1CN(Cc2cc(C(F)(F)F)c(=O)[nH]n2)C1)N1CCN2c3ncc(C(F)(F)F)cc3COC[C@@H]2C1` [Embodiment 44, (S)-4-(trifluoromethyl)-6-((3-(3-(trifluoromethyl)-7,7a,8,9,10,11-hexahydro-5H-pyrazino[2,1-c]pyrido[2,3-e][1,4]oxazepine-9-carbonyl)azetidin-1-yl)methyl)pyridazin-3(2H)-one] came in with a half-inhibitory concentration (IC50) of 10 to 100 nM.

`COc1cc(C(F)(F)F)cnc1N1CCN(C(=O)[C@H]2C[C@H](NC(C)(C)c3cc(C(F)(F)F)c(=O)[nH]n3)C2)CC1` [Embodiment 59]: the 50% inhibitory concentration (IC50) lay in the range of 10 to 100 nM.

On to `C[C@@H]1CN(c2ncc(C(F)(F)F)cn2)CCN1C(=O)[C@H]1C[C@H](NCc2c[nH]c(=O)c(C(F)(F)F)c2)C1` [Embodiment 8], for which the IC50 lay in the range of 10 to 100 nM.

In turn, `O=C([C@@H]1CCN(Cc2c[nH]c(=O)c(C(F)(F)F)c2)C1)N1CCN(c2ncc(C(F)(F)F)cn2)CC1` [Embodiment 24] registered a half-inhibitory concentration (IC50) of 10 to 100 nM. In the case of `O=c1[nH]cc(CN[C@H]2C[C@@H](C(=O)N3CCN(c4ncc(C(F)(F)F)cn4)CC3)C2)cc1C(F)(F)F` [Embodiment 19] it was 10 to 100 nM; in that of `O=C(N1CCN(c2ncc(C(F)(F)F)cn2)CC1)C12CC(NCc3c[nH]c(=O)c(C(F)(F)F)c3)(C1)C2` [Embodiment 25], 100 to 1000 nM. `COc1cc(N2CCN(C(=O)C3CN(Cc4cc(C(F)(F)F)c(=O)[nH]n4)C3)CC2)ncc1C(F)(F)F` [Embodiment 57, 6-((3-(4-(4-methoxy-5-(trifluoromethyl)pyridin-2-yl)piperazine-1-carbonyl)azetidin-1-yl)methyl)-4-(trifluoromethyl)pyridazin-3(2H)-one] returned an IC50 of less than 10 nM. In the case of `O=C(C1CN(Cc2c[nH]c(=O)c(C(F)(F)F)c2)C1)N1CCN(c2ccc(C(F)(F)F)cn2)CC1` [Embodiment 27] it was 10 to 100 nM.

The compound `O=c1[nH]nc(CN[C@H]2C[C@H](C(=O)N3CCN4c5ncc(C(F)(F)F)cc5COC[C@@H]4C3)C2)cc1C(F)(F)F` [Embodiment 43] displayed an IC50 of 10 to 100 nM. Regarding `O=C(C1CN(Cc2cc(C(F)(F)F)c(=O)[nH]n2)C1)N1CCN(c2ccc(C(F)(F)F)cn2)CC1` [Embodiment 32], the IC50 was in the range of 10 to 100 nM. In the case of `O=C([C@@H]1CCN(Cc2cc(C(F)(F)F)c(=O)[nH]n2)C1)N1CCN(c2ncc(C(F)(F)F)cn2)CC1` [Embodiment 31] it was 10 to 100 nM; in that of `O=C([C@H]1CCC[C@H](NCc2c[nH]c(=O)c(C(F)(F)F)c2)C1)N1CCN(c2ncc(C(F)(F)F)cn2)CC1` [Embodiment 16], 1000 to 10000 nM.

As for `CC(C)(c1cc(C(F)(F)F)c(=O)[nH]n1)N1CC(C(=O)N2CCN(c3ncc(C(F)(F)F)cn3)CC2)C1` [Embodiment 49, 4-(trifluoromethyl)-6-(2-(3-(4-(5-(trifluoromethyl)pyrimidin-2-yl)piperazine-1-carbonyl)azetidin-1-yl)propan-2-yl)pyridazin-3(2H)-one], the concentration for half-maximal inhibition (IC50) lay in the range of 10 to 100 nM. Compound `O=c1[nH]nc(CN[C@H]2C[C@H](C(=O)N3CCN4c5ncc(C(F)(F)F)cc5COC[C@H]4C3)C2)cc1C(F)(F)F` [Embodiment 39] displayed an IC50 of 10 to 100 nM.

For `O=C(C1CN(Cc2cc(C(F)(F)F)c(=O)[nH]n2)C1)N1CCN2c3ncc(C(F)(F)F)cc3OCC[C@@H]2C1` [Embodiment 37], the IC50 was in the range of 10 to 100 nM. In turn, `O=C([C@@H]1CCCN(Cc2c[nH]c(=O)c(C(F)(F)F)c2)C1)N1CCN(c2ncc(C(F)(F)F)cn2)CC1` [Embodiment 22] registered an IC50 of 10 to 100 nM. The compound `O=C(C1CC2(C1)CN(Cc1c[nH]c(=O)c(C(F)(F)F)c1)C2)N1CCN(c2ncc(C(F)(F)F)cn2)CC1` [Embodiment 21] registered an IC50 of 1000 to 10000 nM. `COc1cc(C(F)(F)F)cnc1N1CCN(C(=O)[C@H]2C[C@H](NCc3cc(C(F)(F)F)c(=O)[nH]n3)C2)CC1` [Embodiment 45] registered an IC50 of 10 to 100 nM.

As for `O=c1[nH]nc(CN[C@H]2C[C@H](C(=O)N3CCN4c5ncc(C(F)(F)F)cc5OCC[C@H]4C3)C2)cc1C(F)(F)F` [Embodiment 41], the IC50 fell in the range of 10 to 100 nM. In the case of `Cc1cc2c(C(F)(F)F)cnc(N3CCN(C(=O)[C@H]4C[C@H](NC(C)(C)c5cc(C(F)(F)F)c(=O)[nH]n5)C4)CC3)c2[nH]1` [Embodiment 68, 6-(2-(((1R,3R)-3-(4-(2-methyl-4-(trifluoromethyl)-1H-pyrrolo[2,3-c]pyridin-7-yl)piperazine-1-carbonyl)cyclobutyl)amino)propan-2-yl)-4-(trifluoromethyl)pyridazin-3(2H)-one] it was less than 10 nM; in that of `O=C([C@@H]1CCN(Cc2c[nH]c(=O)c(C(F)(F)F)c2)C1)N1C2CCC1CN(c1ncc(C(F)(F)F)cn1)C2` [Embodiment 10, 3-(trifluoromethyl)-5-(((3R)-3-(3-(5-(trifluoromethyl)pyrimidin-2-yl)-3,8-diazabicyclo[3.2.1]octane-8-carbonyl)pyrrolidin-1-yl)methyl)pyridin-2(1H)-one], 10 to 100 nM. In the case of `O=c1[nH]cc(CN[C@H]2C[C@H](C(=O)N3CCN(c4ccc(C(F)(F)F)cn4)CC3)C2)cc1C(F)(F)F` [Embodiment 28], the 50% inhibitory concentration (IC50) lay within 10 to 100 nM. `N#Cc1cc(C(F)(F)F)cnc1N1CCN(C(=O)C2CC(NCc3cc(C(F)(F)F)c(=O)[nH]n3)C2)CC1` [Embodiment 50, 2-(4-((1R,3R)-3-(((6-oxo-5-(trifluoromethyl)-1,6-dihydropyridazin-3-yl)methyl)amino)cyclobutane-1-carbonyl)piperazin-1-yl)-5-(trifluoromethyl)nicotinonitrile]: the IC50 was 10 to 100 nM. For `O=c1[nH]nc(CN[C@H]2C[C@@H](C(=O)N3CCN(c4ncc(C(F)(F)F)cn4)CC3)C2)cc1C(F)(F)F` [Embodiment 20] the value was 100 to 1000 nM; for `C[C@@H](CN1CC[C@@H](C(=O)N2C3CCC2CN(c2ncc(C(F)(F)F)cn2)C3)C1)Nc1cn[nH]c(=O)c1C(F)(F)F` [Embodiment 2], 10 to 100 nM; for `CCOc1cc(C(F)(F)F)cnc1N1CCN(C(=O)[C@H]2C[C@H](NC(C)(C)c3cc(C(F)(F)F)c(=O)[nH]n3)C2)CC1` [Embodiment 58], 10 to 100 nM.

`C[C@H]1CN(C(=O)[C@H]2C[C@H](NCc3c[nH]c(=O)c(C(F)(F)F)c3)C2)CCN1c1ncc(C(F)(F)F)cn1` [Embodiment 23] returned an IC50 of less than 10 nM. In the case of `O=c1cc(OC2CCC2)c(CN[C@H]2C[C@H](C(=O)N3CCN(c4ncc(C(F)(F)F)cn4)CC3)C2)n[nH]1` [Embodiment 52] it was 10 to 100 nM.

Consider `O=C(C1CN(Cc2n[nH]c(=O)cc2C(F)(F)F)C1)N1CCN(c2ncc(C(F)(F)F)cn2)CC1` [Embodiment 54, 5-(trifluoromethyl)-6-((3-(4-(5-(trifluoromethyl)pyrimidin-2-yl)piperazine-1-carbonyl)azetidin-1-yl)methyl)pyridazin-3(2H)-one], for which the concentration for half-maximal inhibition (IC50) was 100 to 1000 nM.

In the case of `O=c1[nH]nc(CN[C@H]2C[C@H](C(=O)N3CCN(c4ncc(C(F)(F)F)cc4C4CC4)CC3)C2)cc1C(F)(F)F` [Embodiment 56], the IC50 lay in the range of 10 to 100 nM. The compound `O=C(c1ccc(NCc2c[nH]c(=O)c(C(F)(F)F)c2)cc1)N1C2CCC1CN(c1ncc(C(F)(F)F)cn1)C2` [Embodiment 7] had an IC50 of 100 to 1000 nM. The compound `Cc1cc(C(F)(F)F)cnc1N1CCN(C(=O)[C@H]2C[C@H](NCc3cc(C(F)(F)F)c(=O)[nH]n3)C2)CC1` [Embodiment 53] showed a 50% inhibitory concentration (IC50) of 10 to 100 nM. In the case of `C[C@@H](CN1CC[C@H](C(=O)N2C3CCC2CN(c2ncc(C(F)(F)F)cn2)C3)C1)Nc1cn[nH]c(=O)c1C(F)(F)F` [Embodiment 6] it was 10 to 100 nM. For `O=C(C1CN(Cc2n[nH]c(=O)cc2OC2CCC2)C1)N1CCN(c2ncc(C(F)(F)F)cn2)CC1` [Embodiment 51, 5-cyclobutoxy-6-((3-(4-(5-(trifluoromethyl)pyrimidin-2-yl)piperazine-1-carbonyl)azetidin-1-yl)methyl)pyridazin-3(2H)-one] the value was 100 to 1000 nM.
